ChEMBL document CHEMBL5244216, “Pyrrole: An insight into recent pharmacological advances with structure activity relationship” (Eur J Med Chem, 2018)
Converted amounts (≈) assume the structure as drawn.

What was measured:
[1] = system: Mycobacterium tuberculosis; experiment: Antitubercular activity against Mycobacterium tuberculosis H37Rv assessed as reduction in bacterial growth by microplate alamar blue assay; type: functional
[2] = biological target: Cannabinoid receptor 1 (Rattus norvegicus, UniProt P20272); experiment: Binding affinity to rat CB1 receptor
[3] = biological target: Cannabinoid receptor 2 (Homo sapiens, UniProt P34972); experiment: Binding affinity to human recombinant CB2 receptor
[4] = Cytotoxicity activity against human Eca-109 cells assessed as reduction in cell viability measured after 48 hrs by MTT assay; type: toxicity, cell-based
[5] = Cytotoxicity activity against human PC-3 cells assessed as reduction in cell viability measured after 48 hrs by MTT assay; type: toxicity, cell-based
[6] = Cytotoxicity activity against human SMMC-7721 cells assessed as reduction in cell viability measured after 48 hrs by MTT assay; type: toxicity, cell-based
[7] = system: Rattus norvegicus; experiment: Anti-inflammatory activity against carrageenan-induced acute paw edema in Wistar albino rat at 10 mg/kg assessed as inhibition of paw edema incubated for 3 hrs by Plethysmometric analysis relative to control; type: functional; set-up: scale not given: the % may be the effect or the level left
[8] = system: Rattus norvegicus; experiment: Anti-inflammatory activity against carrageenan-induced acute paw edema in Wistar albino rat at 10 mg/kg assessed as inhibition of paw edema incubated for 5 hrs by Plethysmometric analysis relative to control; type: functional; set-up: scale not given: the % may be the effect or the level left
[9] = system: Pseudomonas aeruginosa; experiment: Antibacterial activity against Pseudomonas aeruginosa assessed as reduction in bacterial growth by broth microdilution method; type: functional, organism-based
[10] = system: Escherichia coli; experiment: Antibacterial activity against Escherichia coli assessed as reduction in bacterial growth by broth microdilution method; type: functional, organism-based
[11] = system: Klebsiella pneumoniae; experiment: Antibacterial activity against Klebsiella pneumoniae assessed as reduction in bacterial growth by broth microdilution method; type: functional, organism-based
[12] = system: Staphylococcus auricularis; experiment: Antibacterial activity against Staphylococcus auricularis assessed as reduction in bacterial growth by broth microdilution method; type: functional, organism-based
[13] = system: Bacillus subtilis; experiment: Antibacterial activity against Bacillus subtilis assessed as reduction in bacterial growth by broth microdilution method; type: functional, organism-based
[14] = system: Human immunodeficiency virus; experiment: Antiviral activity against HIV-CBL 20 infected in MT-4 cells assessed as viral replication measured after 4 days by ELISA; type: functional, organism-based; conditions: Human immunodeficiency virus 1, CBL 20, MT4, 96 h
[15] = system: MDA-MB-231; experiment: Antiproliferative activity against human MDA-MB-231 cells by SRB assay
[16] = system: Bacillus subtilis; experiment: Antibacterial activity against Bacillus subtilis MTCC 121 assessed as zone of inhibition at 800 ug/mL by disk diffusion method; type: functional; conditions: read-out: IZ
[17] = system: Staphylococcus aureus; experiment: Antibacterial activity against Staphylococcus aureus 22 assessed as zone of inhibition at 800 ug/mL by disk diffusion method; type: functional; conditions: read-out: IZ
[18] = system: Escherichia coli; experiment: Antibacterial activity against Escherichia coli K12 assessed as zone of inhibition at 800 ug/mL by disk diffusion method; type: functional; conditions: read-out: IZ
[19] = system: Klebsiella pneumoniae; experiment: Antibacterial activity against Klebsiella pneumoniae assessed as zone of inhibition at 800 ug/mL by disk diffusion method; type: functional; conditions: read-out: IZ
[20] = system: Rattus norvegicus; experiment: Antihypertensive activity in Wistar rat assessed as decrease in systolic blood pressure at 20 mg/kg, po measured after 0.5 to 2 hrs by tail cuff method; type: functional; conditions: time 0.5-2 hrs
[21] = biological target: Tyrosine-protein kinase Lck (Homo sapiens, UniProt P06239); experiment: Inhibition of human recombinant Lck
[22] = system: Rattus norvegicus; experiment: Anti-inflammatory activity against carrageenan-induced acute paw edema in Wistar albino rat at 10 mg/kg assessed as inhibition of paw edema volume incubated for 3 hrs by Plethysmometric analysis relative to control; type: functional; set-up: scale not given: the % may be the effect or the level left
[23] = Inhibition of maize HD2; set-up: species or system Zea mays
[24] = Inhibition of maize HD1-B; set-up: species or system Zea mays
[25] = Inhibition of maize HD1-A; set-up: species or system Zea mays
[26] = system: Rattus norvegicus; experiment: Anti-inflammatory activity against carrageenan-induced acute paw edema in Wistar albino rat at 100 mg/kg assessed as inhibition of paw edema volume incubated for 3 hrs by Plethysmometric analysis relative to control; type: functional; set-up: scale not given: the % may be the effect or the level left
[27] = system: Mycobacterium tuberculosis; experiment: Antitubercular activity against Mycobacterium tuberculosis H37Rv assessed as reduction in microbial growth by broth dilution method; type: functional
[28] = system: Human immunodeficiency virus 1; experiment: Antiviral activity against HIV-1; type: functional, organism-based
[29] = Cytotoxicity activity against human A549 cells assessed as reduction in cell viability measured after 48 hrs by MTT assay; type: toxicity, cell-based
[30] = system: Mycobacterium tuberculosis; experiment: Antitubercular activity against Mycobacterium tuberculosis 103471 assessed as reduction in bacterial growth; type: functional
[31] = Toxicity in Nilaparvata lugens assessed as mortality at 0.8 mg/L relative to control; conditions: at 0.8 µg/mL
[32] = Cytotoxicity activity against human MCF7 cells assessed as reduction in cell viability measured after 72 hrs by MTT assay; type: toxicity, cell-based
[33] = Cytotoxicity activity against human MOLT-4 cells assessed as reduction in cell viability measured after 72 hrs by MTT assay; type: toxicity, cell-based
[34] = Cytotoxicity activity against human HL-60 cells assessed as reduction in cell viability measured after 72 hrs by MTT assay; type: toxicity, cell-based

Chain of Cannabinoid receptor 2 (P34972 whole entry): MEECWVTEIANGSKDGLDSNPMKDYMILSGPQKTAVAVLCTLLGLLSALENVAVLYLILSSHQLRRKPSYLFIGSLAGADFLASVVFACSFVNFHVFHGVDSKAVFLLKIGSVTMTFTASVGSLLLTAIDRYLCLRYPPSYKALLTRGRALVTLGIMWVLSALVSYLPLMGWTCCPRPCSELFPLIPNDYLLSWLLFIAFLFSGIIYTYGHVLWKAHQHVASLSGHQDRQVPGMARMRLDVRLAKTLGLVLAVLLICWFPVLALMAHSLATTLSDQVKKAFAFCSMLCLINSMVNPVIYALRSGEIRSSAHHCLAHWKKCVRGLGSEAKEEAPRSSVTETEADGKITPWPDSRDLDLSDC
Chain of Tyrosine-protein kinase Lck (P06239 whole entry): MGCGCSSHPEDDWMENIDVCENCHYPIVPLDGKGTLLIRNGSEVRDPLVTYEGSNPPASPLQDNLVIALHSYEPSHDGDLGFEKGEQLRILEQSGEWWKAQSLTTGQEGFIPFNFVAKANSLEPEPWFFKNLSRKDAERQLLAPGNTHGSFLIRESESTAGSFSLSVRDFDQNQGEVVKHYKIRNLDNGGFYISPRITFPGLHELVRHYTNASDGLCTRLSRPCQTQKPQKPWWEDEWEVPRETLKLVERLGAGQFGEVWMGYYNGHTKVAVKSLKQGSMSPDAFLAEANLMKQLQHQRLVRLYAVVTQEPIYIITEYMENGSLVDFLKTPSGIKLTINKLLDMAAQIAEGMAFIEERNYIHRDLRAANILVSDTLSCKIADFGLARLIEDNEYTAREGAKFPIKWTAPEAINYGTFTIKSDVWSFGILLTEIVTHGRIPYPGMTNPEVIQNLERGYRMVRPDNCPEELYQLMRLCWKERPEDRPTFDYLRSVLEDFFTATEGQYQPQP
Chain of Cannabinoid receptor 1 (P20272 whole entry): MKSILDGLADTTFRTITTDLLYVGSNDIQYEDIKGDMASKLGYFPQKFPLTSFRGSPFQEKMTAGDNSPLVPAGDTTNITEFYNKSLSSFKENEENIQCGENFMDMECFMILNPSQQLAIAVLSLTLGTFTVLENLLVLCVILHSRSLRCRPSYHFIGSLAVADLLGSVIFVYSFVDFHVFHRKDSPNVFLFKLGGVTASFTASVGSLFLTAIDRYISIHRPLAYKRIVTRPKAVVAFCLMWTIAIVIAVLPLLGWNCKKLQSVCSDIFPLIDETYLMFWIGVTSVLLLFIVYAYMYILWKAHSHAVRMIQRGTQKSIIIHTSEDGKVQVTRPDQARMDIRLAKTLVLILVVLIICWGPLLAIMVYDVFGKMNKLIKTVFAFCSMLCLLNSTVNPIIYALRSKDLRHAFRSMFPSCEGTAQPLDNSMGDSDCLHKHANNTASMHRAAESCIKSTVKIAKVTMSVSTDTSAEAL

O=C(N/N=C/c1ccc(C(c2cccc([N+](=O)[O-])c2)c2ccc(/C=N/NC(=O)c3ccncc3)[nH]2)[nH]1)c1ccncc1
MIC [1]: 7.9 µg/mL (≈ 14.1 µM)

CCCCCn1c(C)c(Br)c(C(=O)c2cccc3ccccc23)c1C
EC50 [2]: 13.3 nM
EC50 [3]: 6.8 nM

CN1C(=O)C(c2ccc[nH]2)=C(c2c[nH]c3ccc(Br)cc23)C1=O
IC50 at 48 h [4]: 6.21 µM
IC50 at 48 h [5]: 2.16 µM
IC50 at 48 h [6]: 29.7 µM

COc1ccc2c(c1)c(CC(=O)O)c(C)n2C(=O)c1ccc(Cl)cc1 [INDOMETHACIN]
Activity [7]: 74.82%
Activity [8]: 80.32%

Cc1c[nH]c(C(=O)N/N=C(/N=N/c2ccccc2)c2ccccc2O)c1C
IC50 [9]: 15.6 µM
IC50 [10]: 15.6 µM
IC50 [11]: 15.6 µM
IC50 [12]: 460 µM
IC50 [13]: 460 µM

CCOC(=O)c1cccn1S(=O)(=O)c1ccccc1[N+](=O)[O-]
EC50 [14]: 15.1 µM

COc1cc2c(c(OC)c1OC)-c1ccc(OC)c(=O)cc1[C@@H](NC(C)=O)CC2 [COLCHICINE]
IC50 [15]: 2000 nM

CCCC/C=C/CCC(O)CCCCCCCC(=O)Nn1c(C)ccc1C (configuration not stated)
zone of inhibition at 800 µg/mL [16]: 18 mm
zone of inhibition at 800 µg/mL [17]: 20 mm
zone of inhibition at 800 µg/mL [18]: 22 mm
zone of inhibition at 800 µg/mL [19]: 21 mm

NNc1nncc2ccccc12 [HYDRALAZINE]
Activity [20]: 83.59 mmHg

NC(=O)c1c(-c2ccc(Oc3ccccc3)cc2)[nH]c(C(=O)c2c(F)cccc2F)c1N
IC50 [21]: 1.1 nM

O=C([O-])Cc1ccccc1Nc1c(Cl)cccc1Cl.[Na+] [DICLOFENAC SODIUM]
Activity [22]: 68%

O=C(Nc1nnc(-c2ccccc2)s1)c1c[nH]cc1-c1ccc([N+](=O)[O-])cc1
Activity [7]: 76.24%
Activity [8]: 78.62%

CC(C(=O)c1cc(/C=C/C(=O)NO)n(C)c1)c1ccccc1 (configuration not stated)
IC50 [23]: 112 nM
IC50 [24]: 15 nM
IC50 [25]: 28 nM

O=C(O)Cn1c(C(=O)O)c(C(=O)c2cccs2)c2sc(C(=O)O)cc21
Activity [26]: 36%

Cc1ccc(C)n1-c1ccc(C(=O)n2[nH]c(=O)c3ccccc3c2=O)cc1
MIC [27]: 0.4 µg/mL

CC[C@@H](CO)NCCN[C@@H](CC)CO [ETHAMBUTOL]
MIC [27]: 0.5 µg/mL

O=[N+]([O-])c1ccccc1S(=O)(=O)c1ccccc1
EC50 [14]: 3.4 µM

CCCCc1c(COC(N)=O)cn(Cc2ccncc2)c1Sc1cc(Cl)cc(Cl)c1
EC50 [28]: 7 nM

NC(=O)N1C(=O)/C(=C(\[O-])c2cccs2)c2cc(Cl)ccc21.[Na+] [TENIDAP SODIUM]
Activity [22]: 60%

O=C1NC(=O)C(c2c[nH]c3ccccc23)=C1c1c[nH]c2ccccc12 [RO-316233]
IC50 at 48 h [4]: 15.9 µM
IC50 at 48 h [5]: 10.3 µM
IC50 at 48 h [6]: 13.2 µM
IC50 at 48 h [29]: 4.14 µM

NNC(=O)c1ccncc1 [ISONIAZID]
MIC [1]: 7.9 µg/mL (≈ 57.6 µM)
MIC [27]: 0.2 µg/mL
MIC [30]: 0.25 µg/mL (≈ 1.82 µM)

CCOc1c([N+](=O)[O-])c2n(c1C)CCN2Cc1cnc(Cl)s1
mortality [31]: 50%

CC(/C=C/C(=O)NO)=C\[C@@H](C)C(=O)c1ccc(N(C)C)cc1 [TRICHOSTATIN]
IC50 [23]: 7 nM
IC50 [24]: 0.4 nM
IC50 [25]: 0.8 nM

CN[C@@H]1[C@H](O[C@H]2[C@H](O[C@H]3[C@H](O)[C@@H](O)[C@H](N=C(N)N)[C@@H](O)[C@@H]3N=C(N)N)O[C@@H](C)[C@]2(O)C=O)O[C@@H](CO)[C@H](O)[C@H]1O [STREPTOMYCIN]
MIC [30]: 0.5 µg/mL (≈ 0.86 µM)

CCOC(=O)c1cc(-c2ccc([N+](=O)[O-])cc2)n(-c2ccc(C3=NNC(=O)CC3)cc2)c1C
Activity [20]: 70.3 mmHg

CN1C(C(=O)Nc2ccccn2)=C(O)c2ccccc2S1(=O)=O [PIROXICAM]
Activity [22]: 59%

CN(C)[C@@H]1C(O)=C(C(N)=O)C(=O)[C@@]2(O)C(O)=C3C(=O)c4c(O)cccc4[C@@](C)(O)[C@H]3C[C@@H]12 [TETRACYCLINE]
IC50 [9]: 1.25 µM
IC50 [10]: 10 µM
IC50 [11]: 0.312 µM
IC50 [12]: 10 µM
IC50 [13]: 1.25 µM

CO[C@H]1/C=C/O[C@@]2(C)Oc3c(C)c(O)c4c(O)c(c(/C=N/N5CCN(C)CC5)c(O)c4c3C2=O)NC(=O)/C(C)=C\C=C\[C@H](C)[C@H](O)[C@@H](C)[C@@H](O)[C@@H](C)[C@H](OC(C)=O)[C@@H]1C [RIFAMPIN]
MIC [27]: 0.4 µg/mL
MIC [30]: 0.3 µg/mL (≈ 0.365 µM)

COC(=O)c1c(C2C(=O)N(C)C(=O)N(C)C2=O)c(-c2ccccc2)n(-c2ccc(OC)c(S(=O)(=O)N3CCOCC3)c2)c1C(=O)OC
IC50 at 72 h [32]: 39 µM
IC50 at 72 h [33]: 25.5 µM
IC50 at 72 h [34]: 30.6 µM

Cc1c(CN2CCSCC2)cc(-c2ccccc2F)n1-c1ccccc1F
MIC [30]: 1 µg/mL (≈ 2.6 µM)

CCCCCCC(O)C/C=C/CCCCCCCCC(=O)Nn1c(C)ccc1C (configuration not stated)
zone of inhibition at 800 µg/mL [16]: 19 mm
zone of inhibition at 800 µg/mL [17]: 18 mm
zone of inhibition at 800 µg/mL [18]: 21 mm
zone of inhibition at 800 µg/mL [19]: 20 mm

CCOc1cc(C2OC(c3ccc(-n4cccc4)cc3)=NN2C(C)=O)ccc1O (configuration not stated)
MIC [27]: 0.2 µg/mL

O=[N+]([O-])NC1=NCCN1Cc1ccc(Cl)nc1 [IMIDACLOPRID]
mortality [31]: 40%

O=C(O)c1cn(C2CC2)c2cc(N3CCNCC3)c(F)cc2c1=O [CIPROFLOXACIN]
zone of inhibition at 800 µg/mL [16]: 18 mm
zone of inhibition at 800 µg/mL [17]: 20 mm
zone of inhibition at 800 µg/mL [19]: 23 mm
